# “And” between values parts separate entries of the source, which are not always exact repeats. Equal entries are not always repeated.
# Tested on: NCI-H196 complex spheroid growth, percent test/control
# Assay: Anticancer human tumor NCI-H196 cell line growth inhibition [AhR];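 further: seven days of drug exposure starting three days after plating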;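 on viability, T/C: 100% = DMSO vehicle control wells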
# Details: for viability, T/C: stronger effect = lower value
# How it was run: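 Agents were dosed in half-log steps down from roughly clinical Cmax, or from 10 microM where Cmax was unknown, alone and with AhR antagonists. Read-out: percent test/control growth of tumor spheroids containing HUVEC and MSC stromal cells.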
# [1] = curve of first compound, second compound 0.1 µM
# [2] = curve of first compound, second compound 0.316 µM
# [3] = curve of first compound, second compound 1 µM
# [4] = curve of first compound, second compound 3.16 µM
# [5] = curve of first compound, second compound 10 µM
# [6] = second compound 0.1 µM, first compound 0.000316 µM
# [7] = second compound 0.1 µM, first compound 0.001 µM
# [8] = second compound 0.1 µM, first compound 0.00316 µM
# [9] = second compound 0.1 µM, first compound 0.01 µM
# [10] = second compound 0.1 µM, first compound 0.0316 µM
# [11] = second compound 0.1 µM, first compound 0.1 µM
# [12] = second compound 0.316 µM, first compound 0.000316 µM
# [13] = second compound 0.316 µM, first compound 0.001 µM
# [14] = second compound 0.316 µM, first compound 0.00316 µM
# [15] = second compound 0.316 µM, first compound 0.01 µM
# [16] = second compound 0.316 µM, first compound 0.0316 µM
# [17] = second compound 0.316 µM, first compound 0.1 µM
# [18] = second compound 1 µM, first compound 0.000316 µM
# [19] = second compound 1 µM, first compound 0.001 µM
# [20] = second compound 1 µM, first compound 0.00316 µM
# [21] = second compound 1 µM, first compound 0.01 µM
# [22] = second compound 1 µM, first compound 0.0316 µM
# [23] = second compound 1 µM, first compound 0.1 µM
# [24] = second compound 3.16 µM, first compound 0.000316 µM
# [25] = second compound 3.16 µM, first compound 0.001 µM
# [26] = second compound 3.16 µM, first compound 0.00316 µM
# [27] = second compound 3.16 µM, first compound 0.01 µM
# [28] = second compound 3.16 µM, first compound 0.0316 µM
# [29] = second compound 3.16 µM, first compound 0.1 µM
# [30] = second compound 10 µM, first compound 0.000316 µM
# [31] = second compound 10 µM, first compound 0.001 µM
# [32] = second compound 10 µM, first compound 0.00316 µM
# [33] = second compound 10 µM, first compound 0.01 µM
# [34] = second compound 10 µM, first compound 0.0316 µM
# [35] = second compound 10 µM, first compound 0.1 µM
smiles,measurement,setting,value
CC[C@@]1(O)C(=O)OCc2c1cc1n(c2=O)Cc2cc3c(CN(C)C)c(O)ccc3nc2-1 + Cc1cncc(-c2nc(NCCc3c[nH]c4ccccc34)c3ncn(C(C)C)c3n2)c1,IC50,[1],> 100 nM
same,IC50,[2],> 100 nM
same,IC50,[3],> 100 nM
same,IC50,[4],> 100 nM
same,IC50,[5],> 100 nM
same,"viability, T/C",[6],105%
same,"viability, T/C",[7],95.5%
same,"viability, T/C",[8],83%
same,"viability, T/C",[9],88.8%
same,"viability, T/C",[10],96.8%
same,"viability, T/C",[11],105%
same,"viability, T/C",[12],101%
same,"viability, T/C",[13],100%
same,"viability, T/C",[14],98.8%
same,"viability, T/C",[15],95.5%
same,"viability, T/C",[16],94.7%
same,"viability, T/C",[17],99.2%
same,"viability, T/C",[18],108%
same,"viability, T/C",[19],103%
same,"viability, T/C",[20],91%
same,"viability, T/C",[21],92.3%
same,"viability, T/C",[22],101%
same,"viability, T/C",[23],89.8%
same,"viability, T/C",[24],104%
same,"viability, T/C",[25],101%
same,"viability, T/C",[26],96.7%
same,"viability, T/C",[27],88.8%
same,"viability, T/C",[28],104%
same,"viability, T/C",[29],95.2%
same,"viability, T/C",[30],82.8%
same,"viability, T/C",[31],97.7%
same,"viability, T/C",[32],95.7%
same,"viability, T/C",[33],74.1%
same,"viability, T/C",[34],83.9%
same,"viability, T/C",[35],77.2%
CC1COCCN1c1cc(-c2ccnn2C)c2ccnc(-c3ccn[nH]3)c2n1 (centres undefined),"viability, T/C",compound 0.00316 µM,88.9% and 98.2% and 94.9%
same,"viability, T/C",compound 0.01 µM,96.8% and 97.7% and 89.9%
same,"viability, T/C",compound 0.0316 µM,87.6% and 92.7% and 96.8%
same,"viability, T/C",compound 0.1 µM,70.2% and 70.5% and 75.3%
same,"viability, T/C",compound 0.316 µM,67% and 59.4% and 75.4%
same,"viability, T/C",compound 1 µM,65.5% and 56.8% and 61.1%
same,IC50,curve of compound,> 1000 nM
CC(C)CC(NC(=O)C(Cc1ccccc1)NC(=O)c1cnccn1)B(O)O (centres undefined) + CC(CO)NC(=O)c1cc(-c2ccc(Cl)cc2)nn(-c2cnn(C)c2)c1=O,IC50,[1],7.64 nM
same,IC50,[2],8.07 nM
same,IC50,[3],8.7 nM
same,IC50,[4],10.6 nM
same,IC50,[5],8.75 nM
same,"viability, T/C","second compound 0.1 µM, first compound 0.000949 µM",108%
same,"viability, T/C","second compound 0.1 µM, first compound 0.003 µM",106%
same,"viability, T/C","second compound 0.1 µM, first compound 0.00949 µM",37%
same,"viability, T/C","second compound 0.1 µM, first compound 0.03 µM",3.54%
same,"viability, T/C","second compound 0.1 µM, first compound 0.0949 µM",2.43%
same,"viability, T/C","second compound 0.1 µM, first compound 0.3 µM",2.49%
same,"viability, T/C","second compound 0.316 µM, first compound 0.000949 µM",106%
same,"viability, T/C","second compound 0.316 µM, first compound 0.003 µM",101%
same,"viability, T/C","second compound 0.316 µM, first compound 0.00949 µM",41.8%
same,"viability, T/C","second compound 0.316 µM, first compound 0.03 µM",2.17%
same,"viability, T/C","second compound 0.316 µM, first compound 0.0949 µM",2.62%
same,"viability, T/C","second compound 0.316 µM, first compound 0.3 µM",1.45%
same,"viability, T/C","second compound 1 µM, first compound 0.000949 µM",109%
same,"viability, T/C","second compound 1 µM, first compound 0.003 µM",103%
same,"viability, T/C","second compound 1 µM, first compound 0.00949 µM",45.8%
same,"viability, T/C","second compound 1 µM, first compound 0.03 µM",3.07%
same,"viability, T/C","second compound 1 µM, first compound 0.0949 µM",1.88%
same,"viability, T/C","second compound 1 µM, first compound 0.3 µM",2.1%
same,"viability, T/C","second compound 3.16 µM, first compound 0.000949 µM",118%
same,"viability, T/C","second compound 3.16 µM, first compound 0.003 µM",113%
same,"viability, T/C","second compound 3.16 µM, first compound 0.00949 µM",54.9%
same,"viability, T/C","second compound 3.16 µM, first compound 0.03 µM",3.25%
same,"viability, T/C","second compound 3.16 µM, first compound 0.0949 µM",1.7%
same,"viability, T/C","second compound 3.16 µM, first compound 0.3 µM",1.74%
same,"viability, T/C","second compound 10 µM, first compound 0.000949 µM",112%
same,"viability, T/C","second compound 10 µM, first compound 0.003 µM",116%
same,"viability, T/C","second compound 10 µM, first compound 0.00949 µM",45.1%
same,"viability, T/C","second compound 10 µM, first compound 0.03 µM",2.87%
same,"viability, T/C","second compound 10 µM, first compound 0.0949 µM",2.23%
same,"viability, T/C","second compound 10 µM, first compound 0.3 µM",2.03%
Cn1ncnc1C1c2n[nH]c(=O)c3cc(F)cc(c23)NC1c1ccc(F)cc1 (centres undefined) + Cc1cncc(-c2nc(NCCc3c[nH]c4ccccc34)c3ncn(C(C)C)c3n2)c1,IC50,[1],> 100 nM
same,IC50,[2],> 100 nM
same,IC50,[3],> 100 nM
same,IC50,[4],> 100 nM
same,IC50,[5],> 100 nM
same,"viability, T/C",[6],110%
same,"viability, T/C",[7],101%
same,"viability, T/C",[8],114%
same,"viability, T/C",[9],104%
same,"viability, T/C",[10],99.3%
same,"viability, T/C",[11],96%
same,"viability, T/C",[12],112%
same,"viability, T/C",[13],98.6%
same,"viability, T/C",[14],110%
same,"viability, T/C",[15],107%
same,"viability, T/C",[16],110%
same,"viability, T/C",[17],97.8%
same,"viability, T/C",[18],103%
same,"viability, T/C",[19],102%
same,"viability, T/C",[20],109%
same,"viability, T/C",[21],111%
same,"viability, T/C",[22],109%
same,"viability, T/C",[23],104%
same,"viability, T/C",[24],111%
same,"viability, T/C",[25],113%
same,"viability, T/C",[26],126%
same,"viability, T/C",[27],96.1%
same,"viability, T/C",[28],108%
same,"viability, T/C",[29],103%
same,"viability, T/C",[30],94.5%
same,"viability, T/C",[31],97.8%
same,"viability, T/C",[32],91.7%
same,"viability, T/C",[33],112%
same,"viability, T/C",[34],96.6%
same,"viability, T/C",[35],104%
CC1(C)CCC(CN2CCN(c3ccc(C(=O)NS(=O)(=O)c4ccc(NCC5CCOCC5)c([N+](=O)[O-])c4)c(Oc4cnc5[nH]ccc5c4)c3)CC2)=C(c2ccc(Cl)cc2)C1 + CC(CO)NC(=O)c1cc(-c2ccc(Cl)cc2)nn(-c2cnn(C)c2)c1=O,IC50,[1],> 10000 nM
same,IC50,[2],> 10000 nM
same,IC50,[3],> 10000 nM
same,IC50,[4],> 10000 nM
same,IC50,[5],> 10000 nM
same,"viability, T/C",[10],99.8%
same,"viability, T/C",[11],100%
same,"viability, T/C","second compound 0.1 µM, first compound 0.316 µM",98.9%
same,"viability, T/C","second compound 0.1 µM, first compound 1 µM",98.2%
same,"viability, T/C","second compound 0.1 µM, first compound 3.16 µM",106%
same,"viability, T/C","second compound 0.1 µM, first compound 10 µM",104%
same,"viability, T/C",[16],100%
same,"viability, T/C",[17],101%
same,"viability, T/C","second compound 0.316 µM, first compound 0.316 µM",100%
same,"viability, T/C","second compound 0.316 µM, first compound 1 µM",101%
same,"viability, T/C","second compound 0.316 µM, first compound 3.16 µM",103%
same,"viability, T/C","second compound 0.316 µM, first compound 10 µM",86.9%
same,"viability, T/C",[22],99.7%
same,"viability, T/C",[23],98.8%
same,"viability, T/C","second compound 1 µM, first compound 0.316 µM",96.5%
same,"viability, T/C","second compound 1 µM, first compound 1 µM",109%
same,"viability, T/C","second compound 1 µM, first compound 3.16 µM",106%
same,"viability, T/C","second compound 1 µM, first compound 10 µM",104%
same,"viability, T/C",[28],98.8%
same,"viability, T/C",[29],101%
same,"viability, T/C","second compound 3.16 µM, first compound 0.316 µM",108%
same,"viability, T/C","second compound 3.16 µM, first compound 1 µM",108%
same,"viability, T/C","second compound 3.16 µM, first compound 3.16 µM",113%
same,"viability, T/C","second compound 3.16 µM, first compound 10 µM",99.3%
same,"viability, T/C",[34],104%
same,"viability, T/C",[35],113%
same,"viability, T/C","second compound 10 µM, first compound 0.316 µM",99.9%
same,"viability, T/C","second compound 10 µM, first compound 1 µM",115%
same,"viability, T/C","second compound 10 µM, first compound 3.16 µM",116%
same,"viability, T/C","second compound 10 µM, first compound 10 µM",96%
COc1cccc2c1C(=O)c1c(O)c3c(c(O)c1C2=O)CC(O)(C(=O)CO)CC3OC1CC(N)C(O)C(C)O1 (centres undefined),"viability, T/C",compound 0.0316 µM,95.5% and 104% and 102%
same,"viability, T/C",compound 0.1 µM,97.6% and 102% and 108%
same,"viability, T/C",compound 0.316 µM,82.6% and 76.4% and 99.2%
same,"viability, T/C",compound 1 µM,42.9% and 44.2% and 59%
same,"viability, T/C",compound 3.16 µM,0.87% and 1.36% and 2.64%
same,"viability, T/C",compound 10 µM,1.12% and 5.21% and 1.87%
same,IC50,curve of compound,792 nM and 736 nM and 1200 nM

# Reference: PubChem BioAssay AID1919016 (Molecular Pharmacology Branch, DTP, NCI, 2023)
